{
  "source": "patent US10098880B2",
  "about": "(CELLWORKS GROUP INC., priority 2014, dated 2018)",
  "key": {"[1]": {"settings": "cited from earlier work"}, "HMG-CoA reductase": {"target": "T1, HMG-CoA reductase (Homo sapiens, UniProt P04035)", "T1 sequence (P04035 1-888)": "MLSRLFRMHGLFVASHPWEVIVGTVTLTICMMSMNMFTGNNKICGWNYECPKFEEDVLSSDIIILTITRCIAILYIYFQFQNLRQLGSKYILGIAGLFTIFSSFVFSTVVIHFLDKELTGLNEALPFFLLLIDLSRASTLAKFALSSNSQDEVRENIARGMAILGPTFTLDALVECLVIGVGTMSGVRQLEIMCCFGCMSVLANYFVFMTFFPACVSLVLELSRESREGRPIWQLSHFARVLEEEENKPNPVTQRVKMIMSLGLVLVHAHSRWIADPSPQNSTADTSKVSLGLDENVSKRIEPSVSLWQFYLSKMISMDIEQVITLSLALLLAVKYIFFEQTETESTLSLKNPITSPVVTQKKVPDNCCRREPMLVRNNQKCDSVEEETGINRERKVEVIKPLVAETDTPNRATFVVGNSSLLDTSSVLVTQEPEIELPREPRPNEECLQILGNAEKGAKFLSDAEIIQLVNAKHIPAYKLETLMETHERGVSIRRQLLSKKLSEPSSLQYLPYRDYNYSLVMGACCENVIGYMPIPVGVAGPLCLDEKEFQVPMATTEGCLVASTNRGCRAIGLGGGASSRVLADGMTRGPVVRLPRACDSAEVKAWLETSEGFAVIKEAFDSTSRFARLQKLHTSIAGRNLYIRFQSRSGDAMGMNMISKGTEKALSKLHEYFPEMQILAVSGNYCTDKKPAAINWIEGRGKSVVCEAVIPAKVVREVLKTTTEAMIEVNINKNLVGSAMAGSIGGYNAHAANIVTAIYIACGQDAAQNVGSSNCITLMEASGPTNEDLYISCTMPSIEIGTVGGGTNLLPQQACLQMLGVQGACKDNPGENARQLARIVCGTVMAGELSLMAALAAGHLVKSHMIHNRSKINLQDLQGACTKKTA", "settings": "in vitro; cited from earlier work"}, "[2]": {"tested_on": "LN229 cell line (TP53 and CDKN2A mutated)", "assay": "In-vitro relative growth assay (CellTiter 96 Aqueous One), LN229 cell line", "assay_type": "cell-based, human", "settings": "FIG. 4A: Nelfinavir 5 μM, Metformin 0.5 mM, Rosuvastatin 12.5 μM, individually or combined, about 71 hours", "protocol": "(§1) U251 cell line is procured from Sigma-Aldrich (Catalog number: 09063001). The U87 human cell line is procured from ATCC (American Type Culture Collection, Manassas, Va., ATCC® HTB-14TM). LN229 cell line is procured from ATCC (American Type Culture Collection, Manassas, Va., […]). […] 100 μl/well of the diluted sample is added to assay plate containing resuspended cells. […] The assay plate is incubated for about 71 hours followed by addition of about 20 μl of Promega Substrate CellTiter 96 Aqueous One Solution Reagent to each well. It is incubated at 37° C. The absorbance of the sample is read at about 490 nm."}, "[3]": {"tested_on": "U87 cell line (PTEN and CDKN2A mutated)", "assay": "In-vitro relative growth assay (CellTiter 96 Aqueous One), U87 cell line", "assay_type": "cell-based, human", "settings": "FIG. 4A: Nelfinavir 5 μM, Metformin 0.5 mM, Rosuvastatin 12.5 μM, individually or combined, about 71 hours", "protocol": "[table] U251 cell line is procured from Sigma-Aldrich (Catalog number: 09063001). The U87 human cell line is procured from ATCC (American Type Culture Collection, Manassas, Va., ATCC® HTB-14TM). LN229 cell line is procured from ATCC (American Type Culture Collection, Manassas, Va., […]). […] DMSO, Digitoxin and drugs (Nelfinavir, Metformin and Rosuvastatin individually and in combination) are serial diluted in an assay media. 100 μl/well of the diluted sample is added to assay plate containing resuspended cells. […] The assay plate is incubated for about 71 hours followed by addition of about 20 μl of Promega Substrate CellTiter 96 Aqueous One Solution Reagent to each well. It is incubated at 37° C. The absorbance of the sample is read at about 490 nm."}, "AKT": {"target": "AKT (Homo sapiens, UniProt P31749)", "sequence (P31749 whole entry)": "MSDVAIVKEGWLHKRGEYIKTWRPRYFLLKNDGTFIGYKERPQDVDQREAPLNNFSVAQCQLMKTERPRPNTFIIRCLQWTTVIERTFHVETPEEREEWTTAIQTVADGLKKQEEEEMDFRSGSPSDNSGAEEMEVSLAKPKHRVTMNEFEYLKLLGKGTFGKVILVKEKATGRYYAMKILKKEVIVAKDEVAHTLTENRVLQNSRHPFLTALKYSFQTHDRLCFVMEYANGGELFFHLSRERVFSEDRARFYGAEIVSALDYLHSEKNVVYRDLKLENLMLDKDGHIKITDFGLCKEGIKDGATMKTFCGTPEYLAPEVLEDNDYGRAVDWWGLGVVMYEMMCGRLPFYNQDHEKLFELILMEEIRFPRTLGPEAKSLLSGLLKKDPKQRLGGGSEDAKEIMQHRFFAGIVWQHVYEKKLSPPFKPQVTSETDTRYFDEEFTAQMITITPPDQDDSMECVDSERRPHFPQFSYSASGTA", "settings": "reported, PMID 23454896; inhibition of AKT phosphorylation at Ser473; cited from earlier work"}, "[4]": {"tested_on": "U251 cell line (PTEN, TP53 and CDKN2A mutated)", "assay": "In-vitro relative growth assay (CellTiter 96 Aqueous One), U251 cell line", "assay_type": "cell-based, human", "settings": "FIG. 4A: Nelfinavir 5 μM, Metformin 0.5 mM, Rosuvastatin 12.5 μM, individually or combined, about 71 hours", "protocol": "as §1"}, "[5]": {"settings": "cited from earlier work", "remark": "listed apart in the source"}, "[6]": {"settings": "cited from earlier work", "remark": "listed apart in the source"}, "[7]": {"settings": "oral 750 mg dose containing 14C-nelfinavir"}},
  "data": [
    {"smiles": "CN(C)C(=N)N=C(N)N", "note": "[Metformin, 1-carbamimidamido-N,N-dimethyl-methanimidamide]", "values": [
      {"measurement": "time of peak action", "setting": "[1]; after oral administration", "result": 3, "unit": "h"},
      {"measurement": "Duration of action", "setting": "[1]; in vivo", "result": "8 to 12", "unit": "h"},
      {"measurement": "time over which absorbed", "setting": "[1]; in vivo", "result": 6, "unit": "h"},
      {"measurement": "drug eliminated in 24 hours", "setting": "[1]; those with healthy renal function", "result": "Approximately 90%"}
    ]},
    {"smiles": "CC(C)c1nc(NS(C)(=O)=O)nc(-c2ccc(F)cc2)c1/C=C/[C@@H](O)C[C@@H](O)CC(=O)O", "note": "[N-desmethylrosuvastatin]", "values": [
      {"measurement": "pharmacological activity relative to parent compound", "setting": "HMG-CoA reductase", "result": "approximately 50%"}
    ]},
    {"smiles": "Cc1c(O)cccc1C(=O)N[C@@H](CSc1ccccc1)[C@H](O)CN1C[C@H]2CCCC[C@H]2C[C@H]1C(=O)NC(C)(C)C", "note": "[Nelfinavir, (3S,4aS,8aS)-N-tert-butyl-2-[(2R,3R)-2-hydroxy-3-[(3-hydroxy-2-methylbenzoyl)amino]-4-phenylsulfanylbutyl]-3,4,4a,5,6,7,8,8a-octahydro-1H-isoquinoline-3-carboxamide]", "values": [
      {"measurement": "reduction in relative growth", "setting": "[2]", "result": "do not show much efficacy"},
      {"measurement": "reduction in relative growth", "setting": "[3]", "result": "do not show much efficacy"},
      {"measurement": "concentration causing AKT inhibition", "setting": "AKT", "result": 20, "unit": "µM"},
      {"measurement": "reduction in relative growth", "setting": "[4]", "result": "do not show much efficacy"},
      {"measurement": "predominant enzymes that metabolize nelfinavir", "setting": "[5]; in humans, hepatic CYP450", "result": "CYP3A and CYP2C19"},
      {"measurement": "Half-life (terminal half-life in plasma)", "setting": "[5]; in vivo", "result": "3.5 to 5", "unit": "h"},
      {"measurement": "dose recovered in the feces", "setting": "[5]; [7]", "result": 87, "unit": "%"},
      {"measurement": "dose recovered in urine", "setting": "[5]; [7]", "result": "1-2%"},
      {"measurement": "fecal radioactivity as oxidative metabolites", "setting": "[5]; [7]", "result": 78, "unit": "%"},
      {"measurement": "fecal radioactivity as unchanged nelfinavir", "setting": "[5]; [7]", "result": 22, "unit": "%"},
      {"measurement": "Absorption", "setting": "[5]; oral administration", "result": "Well absorbed"}
    ]},
    {"smiles": "CC(C)c1nc(N(C)S(C)(=O)=O)nc(-c2ccc(F)cc2)c1/C=C/[C@@H](O)C[C@@H](O)CC(=O)O", "note": "[Rosuvastatin, (E,3R,5S)-7-[4-(4-fluorophenyl)-2-[methyl(methylsulfonyl)amino]-6-propan-2-ylpyrimidin-5-yl]-3,5-dihydroxyhept-6-enoic acid]", "values": [
      {"measurement": "reduction in relative growth", "setting": "[2]", "result": "do not show much efficacy"},
      {"measurement": "reduction in relative growth", "setting": "[3]", "result": "do not show much efficacy"},
      {"measurement": "reduction in relative growth", "setting": "[4]", "result": "do not show much efficacy"},
      {"measurement": "total body clearance by the hepatic route", "setting": "[6]; after an intravenous dose", "result": 72, "unit": "%"},
      {"measurement": "total body clearance via the renal route", "setting": "[6]; after an intravenous dose", "result": "approximately 28%"},
      {"measurement": "excreted in the feces (rosuvastatin and its metabolites)", "setting": "[6]; following oral administration", "result": 90, "unit": "%"},
      {"measurement": "Bioavailability", "setting": "[6]; in vivo", "result": "approximately 20%"},
      {"measurement": "Half-life", "setting": "[6]; in vivo", "result": 19, "unit": "h"},
      {"measurement": "excreted as metabolite", "setting": "[6]; in vivo", "result": "~10", "unit": "%"},
      {"measurement": "increase of AUC by inhibitors of CYP2C9", "setting": "[6]; in vivo", "result": "less than 2 fold"},
      {"measurement": "radiolabeled dose recovered as metabolite", "setting": "[6]; in vivo", "result": "approximately 10%"},
      {"measurement": "share of the pharmacologic action accounted for by parent", "setting": "[6]; in vivo", "result": "greater than 90%"}
    ]}
  ]
}
